Laboratory results published in the NIST ThermoML archive (doi:10.1021/je900903w).

Experiment: mn = molality of the nth substance listed, in mol/kg
Conditions: 101 kPa, Liquid; for molar conductivity: Alternating current cell with electrodes

O=C[O-].[Na+] [sodium methanoate] + O
Conditions	mass density, 298.15 K [kg/m3]	molar conductivity, 278.15 K [S·m2/mol]	molar conductivity, 283.15 K [S·m2/mol]	molar conductivity, 288.15 K [S·m2/mol]	molar conductivity, 293.15 K [S·m2/mol]	molar conductivity, 298.15 K [S·m2/mol]	molar conductivity, 303.15 K [S·m2/mol]	molar conductivity, 308.15 K [S·m2/mol]	molar conductivity, 313.15 K [S·m2/mol]
m1 = 0.0002873	–	0.00626	0.007191	0.008167	0.009185	0.01025	0.01134	0.01247	0.01358
m1 = 0.0003841	–	0.006215	0.007142	0.00813	0.009157	0.01022	0.01133	0.01246	0.01356
m1 = 0.0005247	–	0.006187	0.007111	0.008093	0.009118	0.01018	0.01128	0.01243	0.01351
m1 = 0.0005682	–	0.006178	0.007106	0.008083	0.009103	0.01017	0.01126	0.01238	0.01348
m1 = 0.0006608	–	0.006158	0.007081	0.008058	0.009078	0.01014	0.01124	0.01237	0.01347
m1 = 0.0008201	–	0.006134	0.007053	0.008027	0.009042	0.0101	0.0112	0.01234	0.01345
m1 = 0.0008629	–	0.006107	0.007049	0.008019	0.009031	0.01009	0.01118	0.01231	0.01344
m1 = 0.0009581	–	0.006095	0.007021	0.007988	0.009	0.01005	0.01115	0.01228	0.01341
m1 = 0.001119	–	0.006088	0.007002	0.007965	0.008975	0.01002	0.01111	0.01224	0.0134
m1 = 0.001188	–	0.006075	0.007	0.007964	0.008973	0.01002	0.01111	0.01224	0.01338
m1 = 0.001257	–	0.006054	0.006986	0.007948	0.008957	0.01001	0.0111	0.01223	0.01337
m1 = 0.001548	–	0.006043	0.006974	0.007934	0.008938	0.009988	0.01107	0.01219	0.01332
m1 = 0.001921	–	0.006045	0.006953	0.007912	0.008914	0.009962	0.01105	0.01216	0.01327
m1 = 0.002391	–	0.006033	0.006939	0.007896	0.008898	0.009943	0.01103	0.01213	0.01325
m1 = 0.003024	–	0.006025	0.006923	0.007876	0.008874	0.009917	0.011	0.0121	0.0132
m1 = 0.003744	–	0.006001	0.006901	0.007852	0.008827	0.009883	0.01096	0.01205	0.01315
m1 = 0.004567	–	0.00598	0.006877	0.007823	0.008811	0.009845	0.01092	0.01202	0.01313
m1 = 0.005591	997.307	0.005949	0.006841	0.007783	0.008767	0.009794	0.01086	0.01196	0.01306
m1 = 0.1222	1002.23	–	–	–	–	–	–	–	–
